According to ChEMBL document CHEMBL3407399, “BPIC: A novel anti-tumor lead capable of inhibiting inflammation and scavenging free radicals” (Bioorg Med Chem Lett, 2015):
Active and inactive are the calls of the source.

Columns and labels:
[1] = Antioxidant activity assessed as O2 free radical scavenging activity produced from dimethylpyridine-N-oxide by ESR assay; type: physicochemical
A549 = assay: Antiproliferative activity against human A549 cells assessed as cell viability after 48 hrs by MTT assay; type: functional, cell-based; details: A549, 48 h
CCRF S-180 [2] = assay: Antiproliferative activity against mouse S180 cells assessed as cell viability after 48 hrs by MTT assay; type: functional, cell-based; details: CCRF S-180, 48 h
[3] = Antiproliferative activity against human HL60 cells assessed as cell viability after 48 hrs by MTT assay; type: functional, cell-based; details: HL-60, 48 h
HT-29 = assay: Antiproliferative activity against human HT-29 cells assessed as cell viability after 48 hrs by MTT assay; type: functional, cell-based; details: HT-29, 48 h
K562 = assay: Antiproliferative activity against human K562 cells assessed as cell viability after 48 hrs by MTT assay; type: functional, cell-based; details: K562, 48 h
Calf thymus DNA [4] = assay: Binding affinity to calf thymus DNA at 40 uM by fluoresce spectrum analysis; type: nucleic-acid assay; details: Bos taurus
CCRF S-180 [5] = assay: Antitumor activity against mouse S180 cells allografted in male ICR mouse assessed as tumor growth inhibition treated orally ervery day for 7 days; type: functional
[6] = Antioxidant activity assessed as OH free radical scavenging activity produced from dimethylpyridine-N-oxide by ESR assay; type: physicochemical
[7] = Antioxidant activity assessed as NO free radical scavenging activity produced from N-methyl-D-glucamine dithiocarbamate by ESR assay; type: physicochemical
Mus musculus [8] = assay: Antiinflammatory activity in male ICR mouse assessed as xylene-induced ear edema at 1 umol/kg, ip relative to NS; type: functional, organism-based
Mus musculus [9] = assay: Antiinflammatory activity against xylene-induced male ICR mouse ear edema model assessed as plasma IL-8 at 1 umol/kg, ip relative to NS; type: functional, organism-based
Calf thymus DNA [10] = assay: Binding affinity to calf thymus DNA at 40 uM by UV-spectrophotometric analysis; type: nucleic-acid assay; details: Bos taurus
Mus musculus [11] = assay: Antiinflammatory activity against xylene-induced male ICR mouse ear edema model assessed as plasma TNFalpha at 1 umol/kg, ip relative to NS; type: functional, organism-based
HepG2 = assay: Antiproliferative activity against human HepG2 cells assessed as cell viability after 48 hrs by MTT assay; type: functional, cell-based; details: HepG2, 48 h
CCRF S-180 [12] = assay: Antitumor activity against mouse S180 cells allografted in male ICR mouse assessed as tumor growth inhibition at 0.1 umol/kg, po treated ervery day for 7 days relative to NS control; type: functional, organism-based
[13] = Antiproliferative activity against human SH-SY5Y cells assessed as cell viability after 48 hrs by MTT assay; type: functional, cell-based
HeLa = assay: Antiproliferative activity against human HeLa cells assessed as cell viability after 48 hrs by MTT assay; type: functional, cell-based

COC(=O)c1cc(-c2nc(C(=O)OCc3ccccc3)cc3c2[nH]c2ccccc23)ccc1O
active: Activity (Calf thymus DNA [4]) | inhibition (CCRF S-180 [5]) Dose-dependent effect | inhibition (Mus musculus [8]) | inhibition (Mus musculus [9]) | Activity (Calf thymus DNA [10]) | inhibition (Mus musculus [11]) | inhibition (CCRF S-180 [12]) Dose-dependent effect
0.96 µM: IC50 (A549) | IC50 (CCRF S-180 [2]) | IC50 [3] | IC50 (HT-29) | IC50 (K562) | IC50 (HepG2) | IC50 [13] | IC50 (HeLa)
0.17 µM: EC50 [6]
73 µM: EC50 [7]
285 µM: EC50 [1]

COc1cccc2c1C(=O)c1c(O)c3c(c(O)c1C2=O)C[C@@](O)(C(=O)CO)C[C@@H]3O[C@H]1C[C@H](N)[C@H](O)[C@H](C)O1 [DOXORUBICIN]
9.25 µM: IC50 (CCRF S-180 [2])
